Here are results for eight compounds from US20070099912A1, “Pyrrolo[2,3-F] and [3,2-F]Isoquinolinone derivatives as 5-hydroxytryptamine-6 ligands” (Wyeth, priority 2005, published 2007).

pKi: −log10 of the molar value. Counter-ions that a name gives are not always drawn.

Series [1] deals with human cloned 5-HT6 receptors (Homo sapiens, UniProt P50406).
human cloned 5-HT6 receptors, sequence (P50406 whole entry): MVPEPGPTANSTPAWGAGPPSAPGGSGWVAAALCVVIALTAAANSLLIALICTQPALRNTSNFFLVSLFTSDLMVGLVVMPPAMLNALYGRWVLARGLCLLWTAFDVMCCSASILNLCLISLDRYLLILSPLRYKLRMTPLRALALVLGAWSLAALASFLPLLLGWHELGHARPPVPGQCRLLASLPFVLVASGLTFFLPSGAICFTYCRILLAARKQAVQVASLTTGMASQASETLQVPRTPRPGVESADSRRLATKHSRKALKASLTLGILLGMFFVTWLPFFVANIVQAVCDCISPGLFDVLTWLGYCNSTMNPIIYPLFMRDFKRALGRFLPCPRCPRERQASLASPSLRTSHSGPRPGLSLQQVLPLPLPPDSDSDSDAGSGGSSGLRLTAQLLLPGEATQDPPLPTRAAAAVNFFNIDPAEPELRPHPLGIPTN

Turning to `CN(C)CCn1ccc2ccc3c(=O)n(Cc4ccccc4)ccc3c21` (as salt: hydrochloride) [Example 6, 7-Benzyl-1-[2-(dimethylamino)ethyl]-1.7-dihydro-6H-pyrrolo[2,3-f]isoquinolin-6-one hydrochloride], the melting point – broadly, the temperature, or range, at which the solid turns liquid – is 100 to 102 °C.
`NCCn1ccc2ccc3c(=O)n(Cc4ccccc4)ccc3c21` (as salt: hydrochloride) [Example 7, 1-(2-Aminoethyl)-7-benzyl-1,7-dihydro-6H-pyrrolo[2,3-f]isoquinolin-6-one hydrochloride] gave a melting point of 153 to 154 °C.
As to `CN(C)CCn1ccc2ccc3c(=O)n(Cc4ccccc4)ccc3c21` [Example 6, 7-Benzyl-1-[2-(dimethylamino)ethyl]-1.7-dihydro-6H-pyrrolo[2,3-f]isoquinolin-6-one hydrochloride], in series [1], the pKi (in general, −log10 of the Ki, conventionally taken in molar units) is 6.41.
As for `NCCn1ccc2ccc3c(=O)n(Cc4ccccc4)ccc3c21` [Example 7, 1-(2-Aminoethyl)-7-benzyl-1,7-dihydro-6H-pyrrolo[2,3-f]isoquinolin-6-one hydrochloride], the negative-log Ki (pKi) in series [1] is 6.74.
For the compound `NCCn1ccc2c3ccn(Cc4ccc(F)cc4)c(=O)c3ccc21` [Example 13, 3-(2-aminoethyl)-7-(4-fluorobenzyl)-3,7-dihydro-6H-pyrrolo[3,2-f]isoquinolin-6-one], the melting point is 203 to 205 °C. Also, the pKi in series [1] was 6.37.
`CN(C)CCn1ccc2c3ccn(Cc4ccc(F)cc4)c(=O)c3ccc21` [Example 14, 3-[2-(dimethylamino)ethyl]-7-(4-fluorobenzyl)-3,7-dihydro-6H-pyrrolo[3,2-f]isoquinolin-6-one] gave a melting point of 221 to 223 °C. In series [1], this compound showed a pKi of 6.42.
In the case of `O=c1c2ccc3c(ccn3CCN3CCCC3)c2ccn1Cc1ccc(F)cc1` [Example 15, 7-(4-fluorobenzyl)-3-(2-pyrrolidin-1-ylethyl)-3,7-dihydro-6H-pyrrolo[3,2-f]isoquinolin-6-one], the melting point fell in the range of 229 to 231 °C. This compound also had a negative-log Ki (pKi) in series [1] of 6.29.
`CN(C)CCCn1ccc2c3ccn(Cc4ccc(F)cc4)c(=O)c3ccc21` [Example 16, 3-[3-(dimethylamino)propyl]-7-(4-fluorobenzyl)-3,7-dihydro-6H-pyrrolo[3,2-f]isoquinolin-6-one] displayed a melting point of 49 to 51 °C.
